Assay results from the NIST ThermoML archive (doi:10.1016/j.jct.2016.12.007).
Numbers after ± are expanded uncertainties.

Assays:
[1] = wn = mass fraction of the nth substance listed; conditions: 101.3 kPa, Liquid, Vibrating tube method
[2] = refractive index (Na D-line) (dimensionless); wn = mass fraction of the nth substance listed; conditions: 101.3 kPa, Liquid, Standard Abbe refractometry

| mass density ([1]; 288.15 K, w1 = 0.4695) | mass density ([1]; 298.15 K, w1 = 0.4841) | mass density ([1]; 308.15 K, w1 = 0.5041) | refractive index ([2]; 288.15 K, w1 = 0.4695) | refractive index ([2]; 298.15 K, w1 = 0.4841) | refractive index ([2]; 308.15 K, w1 = 0.5041) | mass density ([1]; 288.15 K, w1 = 0.2622) | mass density ([1]; 298.15 K, w1 = 0.2625) | mass density ([1]; 308.15 K, w1 = 0.2666) | refractive index ([2]; 288.15 K, w1 = 0.2622) | refractive index ([2]; 298.15 K, w1 = 0.2625) | refractive index ([2]; 308.15 K, w1 = 0.2666) | SMILES |
| --- | --- | --- | --- | --- | --- | --- | --- | --- | --- | --- | --- | --- |
| 1480.4 ± 4.3 kg/m3 | 1500.3 ± 4.3 kg/m3 | 1517.5 ± 4.3 kg/m3 | 1.3874 ± 0.0005 | 1.3883 ± 0.0005 | 1.3894 ± 0.0005 | – | – | – | – | – | – | [Cl-].[Rb+] [rubidium chloride] + O |
| – | – | – | – | – | – | 1201 ± 4.2 kg/m3 | 1197.8 ± 4.2 kg/m3 | 1193.6 ± 4.2 kg/m3 | 1.3811 ± 0.0005 | 1.3795 ± 0.0005 | 1.3781 ± 0.0005 | [Cl-].[Na+] [sodium chloride] + O |
